# Literature values, collected in US20140018379A1, “PYRIMIDINE DERIVATIVES” (CONCERT PHARMACEUTICALS INC., priority 2010, published 2014).
# Conditions: 12th CROI 2005, Abst 160
structure (smiles),measurement,setting,value
"Cc1cc(/C=C/C#N)cc(C)c1Nc1ccnc(Nc2ccc(C#N)cc2)n1.Cl [rilpivirine, 4-[4-[4-[(E)-2-cyanovinyl]-2,6-dimethylphenylamino]pyrimidin-2-ylamino]benzonitrile hydrochloride]",safety and tolerability in clinical trials,,safe and well-tolerated
same,most commonly reported adverse event,clinical trials,Headache
